The record followed here is US9981997B2, “Chemical reagents for attaching affinity molecules on surfaces” (ARIZONA BOARD OF REGENTS ON BEHALF OF ARIZONA STATE …, priority 2013, dated 2018).

The series in a line: Stability of linkers, NMR monitoring and storage. In kind it is physicochemical. The settings on record: for stability by NMR monitoring: pure form and in chloroform, room temperature, at least two days; for storage stability: stored at −78° C. for one year. The source says: The molecular anchor (3) was synthesized simply by reacting APS (1) with 2-(cyclooct-2-yn-1-yloxy)acetic acid (2) in the presence of 1-ethyl-3-(3-dimethylaminopropyl)carbodiimide (EDC, FIG. 10). The desired product was separated as a white solid by silica gel chromatography with a yield of 60%. The molecular linker for RI (6a, FIG. 4) was synthesized starting from hexaethylene glycol. First, azido-(CH2CH2O)6-Ts (4, Ts=tosyl) was synthesized in a multi-gram scale (Loiseau, F. A. et al. J. Org. Chem. 2004, 69, 639-647; Svedhem, S.; et al. J. Org. Chem. 2001, 66, 4494-4503). The azido-(CH2CH2O)12—OH (5) was prepared in a 71% yield by reacting 4 with sodium hexaethylene glycoxide (3 times excess) that was generated in situ by treating hexaethylene glycol with sodium hydride. In presence of potassium t-butoxide, 5 reacted with divinyl sulfone to furnish the desired product 6a in a yield of 64%. In the same manner, the linker azido-(CH2CH2O)36-vinyl sulfone (6b) was synthesized by reacting azido-dPEG®—alcohol with divinyl sulfone in a yield close to that of 6a (FIG. 5). These two products were characterized with FTIR, NMR, and mass spectroscopy. Although vinyl sulfones may react with azides in presence of CuSO4 and sodium ascorbate, it was determined by NMR monitoring that 6a and 6b were stable both in its pure form and in chloroform at room temperature at least for two days. […] Maleimide is another reactive group that is functionally similar to vinyl sulfone in bioconjugation, but it may be less amenable to coexisting with azide because a [3+2]cycloaddition could spontaneously take place between these two functions in some circumstances. In addition, maleimide can undergo the thiol exchanges and ring hydrolysis (above pH 8), which may complicate outcomes of the conjugating reaction. Thus, vinyl sulfone was chosen as a Michael addition receptor of thiols in this attachment chemistry.

`C=CS(=O)(=O)CCOCCOCCOCCOCCOCCOCCOCCOCCOCCOCCOCCOCCOCCOCCOCCOCCOCCOCCOCCOCCOCCOCCOCCOCCOCCOCCOCCOCCOCCOCCOCCOCCOCCOCCOCCOCCN=[N+]=[N-]` [6b, 1-Azido-35-(2-(vinylsulfonyl)ethoxy)-3n105^3-pentatricontaoxaheptahectane]: the “stability by NMR monitoring” value was “stable” and the storage stability entry is “no degradation has been observed”.
On to `C=CS(=O)(=O)CCOCCOCCOCCOCCOCCOCCOCCOCCOCCOCCOCCOCCN=[N+]=[N-]` [6a, 1-Azido-35-(2-(vinylsulfonyl)ethoxy)-3n33^3-undecaoxapentatriacontane], for which the “stability by NMR monitoring” value is “stable” and the storage stability result is reported as “no degradation has been observed”.
